{
  "source": "patent US7745390B2",
  "about": "“Antimicrobial peptides” (priority 2005, dated 2010)",
  "key": {"[1]": {"system": "B. cereus", "assay_type": "cell-based", "details": "pH 7.2", "method_in_brief": "(§1)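 First, peptides in 10 mM phosphate pH 7.2 with 0.03% LB meet bacteria (~5×10^6 CFU/ml). Second, incubation runs 3 h at 37 °C. Third, LB is added and plates grow overnight before OD600 reading.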"}, "[2]": {"system": "E. coli DH5a", "assay_type": "cell-based", "details": "DH5a, pH 7.2", "method_in_brief": "as §1"}, "[3]": {"system": "Salmonella", "assay_type": "cell-based, S. typhimurium", "details": "pH 7.2", "method_in_brief": "as §1"}, "[4]": {"system": "bacteria", "experiment": "Activity in DMEM and RPMI media (lysis of bacteria)", "assay_type": "cell-based", "set-up": "key to Active in DMEM: YES: Active in DMEM; a blank means no activity", "details": "Table 2; tested in DMEM and RPMI", "experimental": "(§2) The CFU assay is the “gold standard” for evaluating antibiotics. Briefly, bacteria are grown overnight in rich medium, such as LB, and then diluted and grown in log phase for 2-4 hours. Cultures are set up as above, with the initial culture media being 10 mM phosphate buffer/0.03% LB; DMEM or RPMI; or DMEM or RPMI plus 10% serum (fetal calf, human, or mouse). After various periods of time, but generally 3 hours or less, aliquots are removed, diluted in LB at various dilutions, and plated on LB agar plates. Plates are incubated overnight at 37° C. and counted on an automatic colony counter.\nIn the column “Active in DMEM”, a blank means no activity. MAP stands for multiple antigenic peptide, where a number of identical peptide chains are synthesized and joined to a common core (like a dendrimer).\nThe peptides listed in Table 2 were tested in DMEM and RPMI, media that approximate blood and tissue conditions in vivo and those that were active under these conditions are listed in the last column (active in DMEM). […] No peptides that were all L-isomer peptides lysed bacteria in DMEM supplemented with serum.\nThe hydrophobic moment is a measure of amphipathicity and indicates how well the hydrophobic residues fall on one side of the helix while the hydrophilic residues fall on the opposite side is shown in column 7. This was determined using the Membrane Explorer Program (http://blanco.biomol.uci.edu/mpex/). A high number indicates a high hydrophobic moment. Column 8 again (like Table 2) indicates which of these peptides is active in DMEM."}, "[5]": {"system": "bacteria", "experiment": "Activity in serum containing media (10% FCS in DMEM or RPMI)", "assay_type": "cell-based", "details": "for active in serum containing media: 10% FCS in DMEM or RPMI", "experimental": "as §2\nTests were conducted in low salt concentrations so that active peptide candidates could be identified more readily. It is important for in vivo applications that the present antimicrobial peptides be active in physiological salt concentrations (150 mM) as well as in the presence of other tissue components, such as blood plasma (serum). Serum may contain proteases that destroy peptides; the use of D-amino acids can improve protease resistance. See G12.21. […] Also active were G11.6, G11.26, G11.29, G11.30, G11.34, G11.35, G12.11, G12.19, G12.20 and G12.21. […]"}, "[6]": {"system": "E. coli", "experiment": "CFU assay in 10% FCS/DMEM", "assay_type": "cell-based", "details": "3 hrs", "experimental": "as §2\n(§3) Three preferred peptides G11.46, G12.21 and G14.15, discussed above, were further tested for antimicrobial efficacy under various conditions using the 10% FCS/DMEM assay as described under CFU assay. The incubation times with the bacteria and peptide was three hours, at which time the bacteria were diluted and plated on agar. […] The MIC for each compound is highlighted."}, "[7]": {"system": "Salmonella typhimurium", "experiment": "CFU assay in 10% FCS/DMEM", "assay_type": "cell-based", "details": "3 hrs", "experimental": "as §2, §3"}, "[8]": {"system": "Staphylococcus aureus", "experiment": "CFU assay in 10% FCS/DMEM", "assay_type": "cell-based", "details": "3 hrs", "experimental": "as §2, §3"}, "[9]": {"system": "bacterial strains", "experiment": "organism not typed", "assay_type": "cell-based", "details": "CFU Assay in 10% FCS/DMEM (3 hrs)", "experimental": "as §3\nTable 9 below repeats some data presented above in Tables 6, 7, and 8."}},
  "note": "Ends that are not written are not given here.",
  "data": [
    {"substance": "RDVSRRFMRRGSRDVSRRFMRRGSRDVSRRFMRR [Peptide G11.26]", "values": [
      {"measurement": "B. cereus MIC", "setting": "[1]", "value": 0.35, "unit": "µM"},
      {"measurement": "IC50", "setting": "[1]", "value": 210, "unit": "nM"},
      {"measurement": "E. coli DH5a MIC", "setting": "[2]", "value": 0.7, "unit": "µM"},
      {"measurement": "IC50", "setting": "[2]", "value": 400, "unit": "nM"},
      {"measurement": "IC50", "setting": "[3]", "value": 210, "unit": "nM"},
      {"measurement": "Salmonella MIC", "setting": "[3]", "value": 0.35, "unit": "µM"},
      {"measurement": "Active in DMEM", "setting": "[4]", "value": "YES"},
      {"measurement": "active in serum containing media", "setting": "[5]", "value": "active"}
    ]},
    {"substance": "RRVSRPPMRRYRSRRPRRLV [Peptide G12.20]", "values": [
      {"measurement": "B. cereus MIC", "setting": "[1]", "value": 0.35, "unit": "µM"},
      {"measurement": "IC50", "setting": "[1]", "value": 210, "unit": "nM"},
      {"measurement": "E. coli DH5a MIC", "setting": "[2]", "value": 0.73, "unit": "µM"},
      {"measurement": "IC50", "setting": "[2]", "value": 230, "unit": "nM"},
      {"measurement": "IC50", "setting": "[3]", "value": 420, "unit": "nM"},
      {"measurement": "Salmonella MIC", "setting": "[3]", "value": 1.4, "unit": "µM"},
      {"measurement": "Active in DMEM", "setting": "[4]", "value": "YES"},
      {"measurement": "active in serum containing media", "setting": "[5]", "value": "active"}
    ]},
    {"substance": "RRVSRPPPRRYRSRRPRRLV [Peptide G12.19]", "values": [
      {"measurement": "B. cereus MIC", "setting": "[1]", "value": 0.35, "unit": "µM"},
      {"measurement": "IC50", "setting": "[1]", "value": 210, "unit": "nM"},
      {"measurement": "E. coli DH5a MIC", "setting": "[2]", "value": 0.75, "unit": "µM"},
      {"measurement": "IC50", "setting": "[2]", "value": 220, "unit": "nM"},
      {"measurement": "IC50", "setting": "[3]", "value": 730, "unit": "nM"},
      {"measurement": "Salmonella MIC", "setting": "[3]", "value": 1.38, "unit": "µM"},
      {"measurement": "Active in DMEM", "setting": "[4]", "value": "YES"},
      {"measurement": "active in serum containing media", "setting": "[5]", "value": "active"}
    ]},
    {"substance": "RRVSRRFMRRYRSRRPRRLV [Peptide G12.11]", "values": [
      {"measurement": "B. cereus MIC", "setting": "[1]", "value": 0.35, "unit": "µM"},
      {"measurement": "IC50", "setting": "[1]", "value": 210, "unit": "nM"},
      {"measurement": "E. coli DH5a MIC", "setting": "[2]", "value": 0.75, "unit": "µM"},
      {"measurement": "IC50", "setting": "[2]", "value": 210, "unit": "nM"},
      {"measurement": "IC50", "setting": "[3]", "value": 410, "unit": "nM"},
      {"measurement": "Salmonella MIC", "setting": "[3]", "value": 0.65, "unit": "µM"},
      {"measurement": "Active in DMEM", "setting": "[4]", "value": "YES"},
      {"measurement": "active in serum containing media", "setting": "[5]", "value": "active"}
    ]},
    {"substance": "RRVSRRPMRRYRSRRPRRLV [Peptide G12.12]", "values": [
      {"measurement": "B. cereus MIC", "setting": "[1]", "value": 0.35, "unit": "µM"},
      {"measurement": "IC50", "setting": "[1]", "value": 210, "unit": "nM"},
      {"measurement": "E. coli DH5a MIC", "setting": "[2]", "value": 0.35, "unit": "µM"},
      {"measurement": "IC50", "setting": "[2]", "value": 210, "unit": "nM"},
      {"measurement": "IC50", "setting": "[3]", "value": 210, "unit": "nM"},
      {"measurement": "Salmonella MIC", "setting": "[3]", "value": 0.35, "unit": "µM"},
      {"measurement": "Active in DMEM", "setting": "[4]", "value": "YES"},
      {"measurement": "active in physiological salt concentrations (150 mM) and presence of serum", "setting": "[5]", "value": "active in such conditions"}
    ]},
    {"substance": "gentamicin [reference compound]", "values": [
      {"measurement": "% Survival (CFU Assay)", "setting": "[6]; 0.08 μM", "value": 117.89, "unit": "%"},
      {"measurement": "% Survival (CFU Assay)", "setting": "[6]; 0.16 μM", "value": 110.6, "unit": "%"},
      {"measurement": "% Survival (CFU Assay)", "setting": "[6]; 0.32 μM", "value": 87.76, "unit": "%"},
      {"measurement": "% Survival (CFU Assay)", "setting": "[6]; 0.63 μM", "value": 17.05, "unit": "%"},
      {"measurement": "% Survival (CFU Assay)", "setting": "[6]; 1.25 μM", "value": 0.21, "unit": "%"},
      {"measurement": "% Survival (CFU Assay)", "setting": "[6]; 2.5 μM", "value": 0.052, "unit": "%"},
      {"measurement": "% Survival (CFU Assay)", "setting": "[7]; 0.04 μM", "value": 119.73, "unit": "%"},
      {"measurement": "% Survival (CFU Assay)", "setting": "[7]; 0.08 μM", "value": 103.72, "unit": "%"},
      {"measurement": "% Survival (CFU Assay)", "setting": "[7]; 0.16 μM", "value": 105.73, "unit": "%"},
      {"measurement": "% Survival (CFU Assay)", "setting": "[7]; 0.32 μM", "value": 93.27, "unit": "%"},
      {"measurement": "% Survival (CFU Assay)", "setting": "[7]; 0.63 μM", "value": 70.15, "unit": "%"},
      {"measurement": "% Survival (CFU Assay)", "setting": "[7]; >1.25 μM", "value": 29.7, "unit": "%"},
      {"measurement": "% Survival (CFU Assay)", "setting": "[8]; 0.04 μM", "value": 90.73, "unit": "%"},
      {"measurement": "% Survival (CFU Assay)", "setting": "[8]; 0.08 μM", "value": 78.94, "unit": "%"},
      {"measurement": "% Survival (CFU Assay)", "setting": "[8]; 0.16 μM", "value": 59.49, "unit": "%"},
      {"measurement": "% Survival (CFU Assay)", "setting": "[8]; 0.32 μM", "value": 37, "unit": "%"},
      {"measurement": "% Survival (CFU Assay)", "setting": "[8]; 0.63 μM", "value": 28.51, "unit": "%"},
      {"measurement": "% Survival (CFU Assay)", "setting": "[8]; >1.25 μM", "value": 17.1, "unit": "%"},
      {"measurement": "MIC", "setting": "[9]; E. Coli (ATCC#25922)", "value": 1.25, "unit": "µM"},
      {"measurement": "MIC", "setting": "[9]; Salmonella (SL1344)", "value": "2.5 to 5", "unit": "µM"},
      {"measurement": "MIC", "setting": "[9]; Staph A (ATCC#29213)", "value": ">1.25", "unit": "µM"}
    ]}
  ]
}
